Measured values reported in patent publication US20240383784A1, “ANTIMICROBIAL SYSTEM AND METHOD” (KEMIRA OYJ, priority 2021, published 2024).

Columns and labels:
[1] = test system: Pseudoxanthomonas taiwanensis biofilms; experiment: Biofilm test on 96-microwell peg lids in synthetic paper machine water, Crystal Violet quantification; assay type: cell-based; conditions: SPW; for Impact (biofilm reduction percentage): 45° C., 150 rpm
Description: (§1) Pure cultures of Meiothermus silvanus, a microbe species commonly found in paper machine biofilms (Ekman J, Journal of Industrial Microbiology & Biotechnology 34:203-211) and Pseudoxanthomonas taiwanensis, another species commonly found in paper machine environments (Desjardins, E & Beaulieu, C, Journal of Industrial Microbiology & Biotechnology 30:141-145) were used to study the efficacy of various chemicals to prevent biofilm formation.
(§2) Biofilm tests were done in fibre-containing synthetic paper machine water, SPW (prepared according to Peltola, et al., J. Ind. Microbiol. Biotechnol. 38: 1719-1727) using 96-microwell plate wells with peg lids (Thermo Fischer Scientific Inc., USA). Plates were incubated at 45° C. with a rotary shaking (150 rpm) providing high flow in each well.
(§3) Wells of 96-microwell plates with peg-lids were filled with SPW and inoculated with the pure bacterial cultures. Biofilm was grown at 45° C. with a rotary shaking (150 rpm) for 24 hours without addition of any chemical compound to be tested.
(§4) After 24 hours from starting the test, the wells were emptied and a fresh solution of SPW, inoculated with the pure bacterial cultures and with different amounts of chemical compounds to be tested were added and the original peg-lid was placed back in place. After an additional 24 hours the wells were emptied and the biofilm amount on the pegs was quantified.
(§5) The amount of biofilm formed on the peg surfaces was quantified with a staining solution by adding 200 μl of 1% Crystal Violet (Merck Millipore KGaA, Germany) in methanol to each well in a clean 96-well plate and placing the biofilm-containing peg-lid on it. After 3 minutes the wells were emptied and the wells and pegs were rinsed 3 times with tap water. Finally the peg-lid was placed in a clean 96-well plate, the attached Crystal Violet was dissolved into ethanol and the absorbance at 595 nm was measured.
(§6) All parts per million (ppm) amounts given in Examples 1-2 are as active ingredients. The Impact values are calculated as biofilm reduction percentages based on a comparison with no added chemicals. A positive value indicates a reduction in amount of biofilm whereas a negative value indicates an increase in the amount of biofilm.

[2] = test system: Meiothermus silvanus biofilms; experiment: as above; assay type: cell-based; conditions: SPW; for Impact (biofilm reduction percentage): 45° C., 150 rpm
Description: as §1, §2, §3, §4, §5, §6

[3] = Sodium hypochlorite 4 ppm alone
[4] = Sodium hypochlorite 8 ppm alone
[5] = on its own, up to a dosage of 8 or 16 ppm

Cc1ccc(S(=O)(=O)C=CC#N)cc1 [Compound A, 3-[(4-methylphenyl)sulphonyl]-2-propenenitrile]
Impact (biofilm reduction percentage) ([1]; Compound A 0.15 ppm alone, Table 2): 5%
Impact (biofilm reduction percentage) ([1]; Compound A 0.15 ppm alone, Table 4): 19%
Impact (biofilm reduction percentage) ([1]; Compound A 0.3 ppm alone, Table 2): 7%
biofilm reduction efficacy (in words) ([1]; at low dosages): ineffective
Impact (biofilm reduction percentage) ([2]; Compound A 0.15 ppm alone, Table 1): 7%
Impact (biofilm reduction percentage) ([2]; Compound A 0.3 ppm alone, Table 1): −7%
Impact (biofilm reduction percentage) ([2]; Compound A 0.3 ppm alone, Table 3): −15%
Impact (biofilm reduction percentage) ([2]; Compound A 0.45 ppm alone, Table 3): 11%
biofilm reduction efficacy (in words) ([2]; at low dosages): ineffective

NCl [MCA, Monochloramine]
Impact (biofilm reduction percentage) ([1]; MCA 0.5 ppm alone): −11%
Impact (biofilm reduction percentage) ([1]; MCA 1 ppm alone): −3%
Impact (biofilm reduction percentage) ([1]; MCA 1.5 ppm alone): 7%
biofilm reduction efficacy (in words) ([1]; at low dosages): ineffective
Impact (biofilm reduction percentage) ([2]; MCA 0.5 ppm alone): −22%
Impact (biofilm reduction percentage) ([2]; MCA 1 ppm alone): 4%
Impact (biofilm reduction percentage) ([2]; MCA 1.5 ppm alone): −2%
biofilm reduction efficacy (in words) ([2]; at low dosages): ineffective

OCl [Sodium hypochlorite, reference compound]
Impact (biofilm reduction percentage) [1, 3]: −3%
Impact (biofilm reduction percentage) [1, 4]: −5%
Impact (biofilm reduction percentage) ([1]; Sodium hypochlorite 16 ppm alone): 0%
biofilm reduction efficacy (in words) [1, 5]: ineffective
Impact (biofilm reduction percentage) ([2]; Sodium hypochlorite 2 ppm alone): −71%
Impact (biofilm reduction percentage) [2, 3]: 1%
Impact (biofilm reduction percentage) [2, 4]: 5%
biofilm reduction efficacy (in words) [2, 5]: ineffective
